# How the values were obtained:
# [1] = system: Female BALB/c mice; assay: Performance evaluation of in vivo delivery of Fluc mRNA lipid nanoparticle (IVIS, body and organs); settings: Fluc mRNA LNP; for Liver (fluorescence expression intensity) / Spleen (fluorescence expression intensity): 75 μL IV; for Liver (fluorescence expression intensity) / Spleen (fluorescence expression intensity) / Total flux (fluorescence expression intensity) / (Spleen/Total Flux) * 100%: 6 hours after injection; for Liver (fluorescence expression intensity) / Spleen (fluorescence expression intensity) / Total flux (fluorescence expression intensity): IVIS; for Total flux (fluorescence expression intensity): 75 μL tail vein injection (IV); for (Spleen/Total Flux) * 100% / Multiple of spleen delivery/total delivery to amino lipid compound 118: IV; for Multiple of spleen delivery/total delivery to amino lipid compound 118: relative to amino lipid compound 118
# How it was run: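 Female BALB/c mice, 6-8 weeks, received 75 μL Fluc mRNA-LNP by tail-vein injection, 3 mice per formulation. At 6 h, 200 μL D-luciferin was injected, mice were anesthetized with isoflurane, and IVIS bioluminescence was imaged in body and organs.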
# [2] = system: Female BALB/c mice; assay: Humoral immunity test for total binding IgG antibody (ELISA, SARS-COV-2 antigen protein) in serum of immunized mice; format: in vivo; settings: IN002.5.1 mRNA LNP, 50 μL IM, serum on 14th day after immunization; FIG. 5-6
# [3] = system: Female BALB/c mice; assay: In vivo safety of hEPO mRNA lipid nanoparticle: serum alanine aminotransferase (ALT) enzyme activity; settings: hEPO mRNA LNP, 300 μL IV, serum 12 h after injection; FIG. 1
# Method: A human erythropoietin mRNA (hEPO mRNA)-encapsulating lipid nanoparticle formulation was prepared according to the method as described in Experimental Example 1, with replacing the luciferase mRNA (Fluc mRNA) with human erythropoietin mRNA (hEPO mRNA), with a concentration of hEPO mRNA of 0.2 g/L, a mass ratio of hEPO mRNA to Lipid of 1:10, a particle size of 90-130 nm, and an encapsulation efficiency of above 90% or higher.
# Animal preparation: Female BALB/c mice of 6-8 weeks old were selected and raised in an SPF grade breeding room. Animal testing was conducted in strict accordance with the guidelines of national health institutions and animal ethics requirements.
# In vivo Delivery: Prior to injection of the test LNP formulations, the LNP formulations were gently and repeatedly inverted to thoroughly mix the formulation samples. A corresponding amount of the formulation samples were aspirated with a 1 ml insulin syringe, and the LNP formulations were injected by tail vein injection (IV), with 5 mice per formulation. Each mouse was injected with 300 μL of the human erythropoietin mRNA (hEPO mRNA)-encapsulating lipid nanoparticle formulation.
# Serum acquisition: Blood samples of mice were collected 12 h after injection, placed in tubes without anticoagulants, and naturally coagulated at room temperature for 30-60 min, and then centrifuged at a speed of 3500 rpm for 10 min to obtain the supernatant, which was the serum.
# The detection of alanine transaminase was carried out according to instructions of the kit (Nanjing Jiancheng Bioengineering Institute, Catalog. No. C009-2-1), and a standard curve was made using the standard provided in the kit. D-PBS was used in the experiment, which was purchased from Sangon Biotech (Shanghai) Co., Ltd., Catalog No. E607009-0600.
# The method of detection of enzyme activity of alanine aminotransferase (ALT) in serum of the mice is as follows:
# • (1) Enzymatic reaction: 0, 2, 4, 6, 8 and 10 μL of […] sodium pyruvate standard solution were sequentially added to 5 μL of 0.1 mol/L phosphate buffer, and the volume was supplemented to 25 μL with a matrix solution, and repeatedly aspirating and spitting with a pipette for mixing well; • (2) Addition reaction: 20 μL 2,4-dinitrophenylhydrazine solution was added to all reaction wells in (1), mixed by aspirating and spitting, and then placed in an incubator at 37° C. to react for 20 min; • (3) Developing: 200 μL of 0.4 mol/L NaOH solution was added to all reaction wells in (2) to stop the reaction, mixed by aspirating and spitting, and incubated at room temperature for 15 min. The OD value of each well was measured at 510 nm in a microplate reader; and • (4) Data processing of standard curve: The corresponding absolute OD value for each well was obtained by subtracting the OD value for 0 μL well from the measured OD value for each well, the corresponding ALT Karmen units being 0, 28, 57, 97, 150 and 200 U/L, respectively. The standard curve was obtain by taking the absolute OD value as the abscissa and the corresponding Karmen unit as the ordinate.
# • (1) Reagent preparation: an ALT matrix solution was placed in an incubator at 37° C. for preheating; • (2) Enzymatic reaction: 5 μL diluted serum was aspirated and added to a 96-well plate, then 20 μL matrix solution was added to the corresponding sample well and mixed by repeatedly aspirating and spitting to avoid bubbling, and then placed in an incubator at 37° C. for 30 min; • (3) Addition reaction: 20 μL 2,4-dinitrophenylhydrazine was added to all reaction wells in (2), mixed by aspirating and spitting, and then reacted in an incubator at 37° C. for 20 min; • (4) Developing: 200 μL of 0.4 mol/L NaOH solution was added to all reaction wells in (3) to stop the reaction, mixed by aspirating and spitting, and then incubated at room temperature for 15 min. […]
SMILES,Liver (fluorescence expression intensity) [1],Spleen (fluorescence expression intensity) [1],Total flux (fluorescence expression intensity) [1],(Spleen/Total Flux) * 100% [1] [%],Multiple of spleen delivery/total delivery to amino lipid compound 118 [1],Humoral immunity effect (IgG titer) compared to ALC0315 [2],ALT enzyme activity (Karmen unit) compared to ALC0315 and SM-102 [3]
CCCCCCC(CCCCCC)OC(=O)CCCCCCCCC(CCCCCCCCC(=O)OC(CCCCCC)CCCCCC)OC(=O)N(CCCN(C)C)CCC(=O)OCCCC [Compound 264],1.61E+08,8.05E+06,4.95E+08,1.63,4.78,better humoral immunity effect,significantly lower ALT enzyme activity
CCCCCCCOC(=O)CCN(CCCN(C)C)C(=O)OC(CCCCCCCCC(=O)OC(CCCCCC)CCCCCC)CCCCCCCCC(=O)OC(CCCCCC)CCCCCC [Compound 267],9.91E+07,1.54E+06,4.01E+08,0.38,1.13,,significantly lower ALT enzyme activity
CCCCCCC(CCCCCC)OC(=O)CCCCCCCCC(CCCCCCCCC(=O)OC(CCCCCC)CCCCCC)OC(=O)N(CCCN(C)C)CC(=O)OCCCC [Compound 270],1.34E+08,7.36E+06,4.40E+08,1.67,4.92,better humoral immunity effect,significantly lower ALT enzyme activity
CCCCCCOC(=O)CN(CCCN(C)C)C(=O)OC(CCCCCCCCC(=O)OC(CCCCCC)CCCCCC)CCCCCCCCC(=O)OC(CCCCCC)CCCCCC [Compound 272],7.42E+07,3.03E+06,4.04E+08,0.75,2.21,,significantly lower ALT enzyme activity
CCCCCCCOC(=O)CN(CCCN(C)C)C(=O)OC(CCCCCCCCC(=O)OC(CCCCCC)CCCCCC)CCCCCCCCC(=O)OC(CCCCCC)CCCCCC [Compound 273],4.33E+07,2.37E+06,1.78E+08,1.33,3.92,better humoral immunity effect,significantly lower ALT enzyme activity

# — US20250250227A1, “AMINO LIPID COMPOUND, PREPARATION METHOD THEREFOR, COMPOSITION THEREOF AND USE THEREOF” (SHENZHEN SHENXIN BIOTECHNOLOGY CO., LTD., priority 2022, published 2025)
